Values of other authors in patent publication US12071516B2, “Polymeric stabilizing formulations” (Nano Precision Medical, Inc., priority 2014, dated 2024).

water solubility: limited water solubility
SMILES: OCCN1CCN(CCCN2c3ccccc3Sc3ccc(C(F)(F)F)cc32)CC1 [Fluphenazine]
